Assay results from patent publication US20050277142A1, “Recombinant cell line for the detection of dioxin-like compounds based on the expression of luciferase gene” (priority 2004, published 2005).

What was measured:
[1] = cited from earlier work
[2] = test system: aryl hydrocarbon receptor (AHR); settings: 2,3,7,8-TCDD set to 1; cited from earlier work
[3] = test system: dioxin-response elements (DREs)-luciferase in Hepa1c1c7-MP cells; experiment: luciferase light intensity bioassay in transfected cell line Hepa1c1c7-MP; assay type: cell-based, mouse
Procedure: (§1) The transfected cells (4×10^5 cells/well) were placed in a 24 well-culture plate. To each well was added 1 mL of culture medium (DMEM+10% FBS). Thereafter, the culture plate was placed in a constant-temperature incubator set at 37° C. and 5% CO2 for two hours to permit cell adhesion.
(§2) The Dioxin (2,3,7,8-TCDD) stock solution with a concentration of 10 μg/mL was subjected to 10-fold serial dilution. 3.22 μl of each diluted solution was taken and added to each well of the culture plate, such that the final concentrations of dioxin in the experimental groups are 10 nM, 1 nM, 100 pM, […], 10 pM, 1 pM and 0.1 pM, respectively. Each experimental group was prepared in quadruplicate. The normal control group was not subjected to any treatment, whereas the solvent control group was treated using 3.22 μl of DMSO. […]
(§3) 100 μl of the lysate obtained in each group was taken and added to each well of a non-transparent 96-well plate, followed by addition of 50 μl of luciferin (which is included in the Luciferase Assay System, (Cat#1500), Promega Cooperation). Finally, the plate was sent to a Beckman coulter DU640B spectrophotometer (set at PMT:1100; read length:0.5; and Gain:1˜100) for automatic detection of the light intensity within 20 seconds. The experimental results thus obtained were analyzed and plotted using statistical analysis, so as to determine whether the results have statistic significance. […]

[4] = test system: dioxin-response elements (DREs)-luciferase in Hepa1c1c7-M4P2 cells; experiment: luciferase light intensity bioassay in transfected cell line Hepa1c1c7-M4P2; assay type: cell-based, mouse
Procedure: as §1, §2, §3

[5] = 100 pM 2,3,7,8-TCDD, 5, 10, 15 and 20 hours tested

| Compound | I-TEF [2] | also measured |
| --- | --- | --- |
| 2,3,7,8-tetrachloro-dibenzo-p-dioxin [2,3,7,8-TCDD] |  | water solubility [1]: 0.0193 ng/mL |
| Clc1cc2c(oc3c(Cl)c(Cl)c(Cl)c(Cl)c32)c(Cl)c1Cl [1,2,3,4,6,7,8-HpCDF] | 0.01 |  |
| Clc1cc2oc3cc(Cl)c(Cl)cc3c2cc1Cl [2,3,7,8-TCDF] | 0.1 |  |
| Clc1cc2c(c(Cl)c1Cl)Oc1c(Cl)c(Cl)c(Cl)c(Cl)c1O2 [1,2,3,4,6,7,8-HpCDD] | 0.01 |  |
| Clc1cc2c(cc1Cl)Oc1cc(Cl)c(Cl)cc1O2 [2,3,7,8-TCDD, 2,3,7,8-tetrachloro-dibenzo-p-dioxin] | 1 | dioxin treatment time giving the most stable and the optimal light intensity result [3, 5]: 20 h; lowest limit of dioxin detection (significant light intensity changes vs controls) ([3]; 15 hours treatment): 5 pM; dioxin treatment time giving the most stable and the optimal light intensity result [4, 5]: 15 h; lowest limit of dioxin detection (obvious light intensity changes vs controls) ([4]; 15 hours treatment): 5 pM |
| Clc1cc2oc3c(Cl)c(Cl)c(Cl)c(Cl)c3c2c(Cl)c1Cl [1,2,3,4,7,8,9-HpCDF] | 0.01 |  |
| Clc1cc2c(c(Cl)c1Cl)Oc1c(cc(Cl)c(Cl)c1Cl)O2 [1,2,3,7,8,9-HxCDD] | 0.1 |  |
| Clc1cc2c(cc1Cl)Oc1c(cc(Cl)c(Cl)c1Cl)O2 [1,2,3,7,8-PeCDD] | 0.5 |  |
| Clc1cc2c(cc1Cl)Oc1c(Cl)c(Cl)c(Cl)c(Cl)c1O2 [1,2,3,4,7,8-HxCDD] | 0.1 |  |
| Clc1c(Cl)c(Cl)c2c(c1Cl)Oc1c(Cl)c(Cl)c(Cl)c(Cl)c1O2 [OCDD] | 0.001 |  |
| Clc1cc2c(c(Cl)c1Cl)Oc1cc(Cl)c(Cl)c(Cl)c1O2 [1,2,3,6,7,8-HxCDD] | 0.1 |  |
| Clc1cc2oc3cc(Cl)c(Cl)c(Cl)c3c2c(Cl)c1Cl [1,2,3,7,8,9-HxCDF] | 0.1 |  |
| Clc1cc2c(oc3c(Cl)c(Cl)c(Cl)cc32)c(Cl)c1Cl [2,3,4,6,7,8-HxCDF] | 0.1 |  |
| Clc1cc2oc3c(Cl)c(Cl)c(Cl)c(Cl)c3c2cc1Cl [1,2,3,4,7,8-HxCDF] | 0.1 |  |
| Clc1cc2oc3cc(Cl)c(Cl)c(Cl)c3c2cc1Cl [1,2,3,7,8-PeCDF] | 0.05 |  |
| Clc1c(Cl)c(Cl)c2c(oc3c(Cl)c(Cl)c(Cl)c(Cl)c32)c1Cl [OCDF] | 0.001 |  |
| Clc1cc2c(oc3cc(Cl)c(Cl)c(Cl)c32)c(Cl)c1Cl [1,2,3,6,7,8-HxCDF] | 0.1 |  |
